Series [1] is described as follows: Erythrosine B and hydroquinone release from dual compartment glycerol-silicone elastomer immersed in deionized water (UV-vis). To be noted: for release kinetics (order): dual compartment elastomer, 80 phr total glycerol concentration. Type of series: physicochemical. The method, then:
For the present experiment two solutions were prepared—glycerol-erythrosine B and glycerol-hydroquinone solutions. Glycerol-erythrosine B solution contained 4 g of glycerol and 0.04 g of erythrosine B. Glycerol-hydroquinone solution contained 4 g of glycerol and 0.2 g of hydroquinone. Single emulsions were prepared as detailed above and were subsequently used to prepare two distinct glycerol-in-silicone emulsions. The glycerol-erythrosine B and glycerol-hydroquinone solutions were each added to 5 g of a silicone prepolymer in respective, separate containers. In this case, Sylgard 184 silicone kit from Dow Corning was applied. The respective mixtures were subsequently speed-mixed for 2 to 5 minutes using a dual asymmetric centrifuge DAC SpeedMixer. To prepare the dual compartment silicone elastomers, the two glycerol-in-silicone emulsions were combined. Desired amounts of each of the emulsions were placed into a speed-mixing cup. The composition was subsequently speed-mixed at low mixing rates (typically between from 500 to 1000 rpm) for around 1 minute in order to uniformly distribute both types of droplets within the silicone matrix. Stable emulsions can be mixed with any given speed. […] After combining and mixing both single emulsions a dual compartment emulsion was obtained. The emulsion contained 10 g of silicone, 4.04 g of glycerol droplets containing erythrosine B and 4.2 g of glycerol droplets containing hydroquinone. The total mass of the emulsion was 18.24 g. In a final step, the elastomer emulsions were cured at 80° C. for 1 hour. Long exposure to high temperatures results in glycerol evaporation therefore prolonged high temperature curing should be avoided. […] Release profiles of erythrosine and hydroquinone from the glycerol-silicone elastomers were determined by immersing composites in deionized water. The progress of release of erythrosine B and hydroquinone was monitored by measuring changes in concentration of both compounds in the aqueous environment. […] Each release profile curve represents an average of three separate experiments. Films with thickness of 0.3 mm were investigated. Such thin films tend to self-adhere therefore they were mounted onto custom-made frames (FIG. 4) to maintain a constant exposed surface area and placed in beakers equipped with magnetic stirring.

Series [2] is described as follows: Hydroquinone release from single compartment glycerol-silicone elastomers immersed in deionized water (UV-vis). Type of series: physicochemical. As to conditions: hydroquinone alone (single glycerol phase), 80 phr total glycerol concentration. The method, then: The example provided leads to a 1.42 g batch of material that may readily be scaled up or down. Using the described method batches from between 1 g and 80 g were prepared. Hydroquinone (HQ, 0.02 g, 5 wt. %) was dissolved in glycerol (0.4 g) at 50° C. using magnetic stirring until a clear solution was obtained (typically around 1-2 hours). […] Sample nomenclature uses the pattern GX HQY S184 Z, where G and X correspond to glycerol and concentration of glycerol in phr (weight parts per hundred weight parts of silicone elastomer), HQ and Y correspond to hydroquinone and concentration of hydroquinone dissolved in glycerol (expressed as weight percentage of HQ in glycerol) and S184 corresponds to applied silicone composition, respectively. […]
Release profiles of HQ from the glycerol-silicone elastomers were determined by immersing composites containing various amounts of glycerol with 5 wt % of HQ in deionized water. The progress of hydroquinone release was monitored by measuring changes in concentration of hydroquinone in the aqueous environment. A UV-vis spectrophotometer POLARstar Omega microplate reader by BMG LabTech was used for the tests, and outcomes were compared against a calibration curve for hydroquinone/water solutions. […]

This note sets out measurements from patent US11739194B2, “Glycerol-silicone elastomers as active matrices with controllable release profiles” (Danmarks Tekniske Universitet, priority 2017, dated 2023).

With erythrosine B, the amount released in series [1] (after 28 hours, 0.3 mm thick dual compartment elastomer, 80 phr glycerol in total) was 15%. Also, in series [1], the “release kinetics (order)” value is given as “zero-order kinetics throughout the whole experiment”.

Take `Oc1ccc(O)cc1` [hydroquinone]: the “release kinetics (order)” value in series [2] is on record as “near-zero order release kinetics”; in series [1] it was “zero-order release kinetics”. Moreover, the “time after which the entire incorporated amount was released” value in series [1] (0.3 mm thick dual compartment elastomer, 40 phr glycerol with erythrosine B + 40 phr glycerol with hydroquinone) is on record as “around 6 hours”. Further, the “share of the total amount released with zero-order kinetics” value in series [1] (0.3 mm thick dual compartment elastomer, 80 phr glycerol in total) is on record as about 80%.
